# From article PMC5824342 (Bioconjugate Chemistry, 2017)
# Columns and labels:
# [1] = target: GRPR (Homo sapiens, UniProt P30550); test: Competitive binding assay, displacement of 125I-[Tyr4]BBN on PC-3 cells
# [2] = LC-MS, previous study of the authors; cited from earlier work
# Sequence of GRPR (P30550 whole entry): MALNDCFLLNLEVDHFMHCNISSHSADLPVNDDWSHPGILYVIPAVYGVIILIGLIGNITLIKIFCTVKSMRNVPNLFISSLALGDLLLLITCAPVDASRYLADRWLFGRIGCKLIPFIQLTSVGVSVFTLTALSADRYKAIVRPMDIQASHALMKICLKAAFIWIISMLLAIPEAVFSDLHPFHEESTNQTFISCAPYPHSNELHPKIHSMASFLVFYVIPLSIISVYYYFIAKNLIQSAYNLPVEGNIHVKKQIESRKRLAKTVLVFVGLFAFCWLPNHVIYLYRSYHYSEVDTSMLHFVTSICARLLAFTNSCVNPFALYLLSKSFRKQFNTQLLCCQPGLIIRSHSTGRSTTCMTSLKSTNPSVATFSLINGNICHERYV
SMILES,IC50 [1] [nM],t1/2 of degradation during incubation in rat hepatocytes [2] [min]
CSCC[C@H](NC(=O)[C@H](CC(C)C)NC(=O)[C@H](Cc1c[nH]cn1)NC(=O)CNC(=O)[C@@H](NC(=O)[C@H](C)NC(=O)[C@H](Cc1c[nH]c2ccccc12)NC(=O)[C@H](CCC(N)=O)NC(=O)CCCCCNC(=O)CN1CCN(CC(=O)O)CCN(CC(=O)O)CC1)C(C)C)C(N)=O [NOTA–Aca–BBN7–14],1.8 ± 0.67,–
CSCC[C@H](NC(=O)[C@H](CC(C)C)NC(=O)[C@H](Cc1cnc[nH]1)NC(=O)CNC(=O)[C@@H](NC(=O)[C@H](C)NC(=O)[C@H](Cc1c[nH]c2ccccc12)NC(=O)[C@@H](N)CCC(N)=O)C(C)C)C(N)=O [BBN7–14],–,4
